Measured values published in patent US7402314B2, “In vivo activation of tumor-specific cytotoxic T cells” (The Scripps Research Institute, priority 1995, dated 2008).

Target: A2.1/K^b (UniProt P01901+P04439, D140Y/D185E/D98H/E176V/G131W/I119V/I121R/I166T/N151K/N90K/Q86G/Q94H/R138H/R169H)
Format: binding, human-mouse chimeric

| Sequence | binding of test peptide to A2.1/K^b (percent specific lysis of EA2/K^b targets by influenza A-specific CTL) | inhibition of binding of the influenza A-derived peptide to A2.1/K^b by Her-2/Neu-derived peptides |
| --- | --- | --- |
| ILKEPVHGV [HIV-1 RT 476-484, reference compound] | efficiently bound to A2.1/K^b | – |
| ILLVVVLGV [Peptide H9] | – | binding at the highest efficiency |
